Results: ChEMBL document CHEMBL4680115, “Discovery of the programmed cell death-1/programmed cell death-ligand 1 interaction inhibitors bearing an indoline scaffold” (Eur J Med Chem, 2020)

Molecular target: T1, Programmed cell death protein 1/Programmed cell death 1 ligand 1 (Homo sapiens, UniProt Q15116+Q9NZQ7)
Assay: Inhibition of PD-1/PDL1 interaction (unknown origin) by HTRF assay
Format: protein-complex assay
Settings: not given

T1 sequence (Q15116 whole entry): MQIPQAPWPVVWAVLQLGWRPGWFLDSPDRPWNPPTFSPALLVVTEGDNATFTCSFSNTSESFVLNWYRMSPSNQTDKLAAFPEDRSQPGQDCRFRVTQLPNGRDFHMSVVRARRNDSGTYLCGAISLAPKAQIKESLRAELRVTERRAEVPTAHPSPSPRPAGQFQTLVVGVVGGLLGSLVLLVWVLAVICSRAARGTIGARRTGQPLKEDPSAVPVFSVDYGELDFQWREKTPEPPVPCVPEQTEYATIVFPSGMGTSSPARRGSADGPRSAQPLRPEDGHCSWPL
T1 sequence (Q9NZQ7 whole entry): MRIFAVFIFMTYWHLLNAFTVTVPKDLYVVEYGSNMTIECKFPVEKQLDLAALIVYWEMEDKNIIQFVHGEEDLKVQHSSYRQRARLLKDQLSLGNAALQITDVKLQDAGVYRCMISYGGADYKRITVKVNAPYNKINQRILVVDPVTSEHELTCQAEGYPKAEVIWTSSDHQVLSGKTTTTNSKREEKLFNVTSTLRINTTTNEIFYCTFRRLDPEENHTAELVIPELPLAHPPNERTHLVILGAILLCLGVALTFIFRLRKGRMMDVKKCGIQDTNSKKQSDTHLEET

Compound	IC50 [nM]
COc1cc(C(=O)N2CCc3c(-c4ccccc4)cccc32)ccc1CN1CCCC[C@@H]1C(=O)O	1060
CC(=O)NCCNCc1ccc(C(=O)N2CCc3c(-c4ccccc4)cccc32)cc1Cl	589
O=C(c1cccc(CNCCO)c1)N1CCc2c(-c3ccccc3)cccc21	344
COc1cc(C(=O)N2CCc3c(-c4ccccc4)cccc32)cc(OC)c1CNCCNC(C)=O	7260
Cc1c(-c2ccccc2)cccc1N1Cc2ccc(CNCCO)cc2C1=O	9380
COc1cc(C(=O)N2CCc3c(-c4ccc5c(c4)OCCO5)cccc32)ccc1CNCCO	225
CC(=O)NCCNCc1ccc(C(=O)N2CCc3c(-c4ccccc4)cccc32)c(Cl)c1	> 10000
CC(=O)NCCNCc1ccc(C(=O)N2CCc3c(-c4ccccc4)cccc32)cc1	622
Cc1c(-c2ccccc2)cccc1N1Cc2cc(CNCCO)ccc2C1=O	7290
COc1cc(C(=O)N2CCc3c(-c4ccccc4)cccc32)ccc1CN1CCC[C@H]1CO	620
Cc1cc(C(=O)N2CCc3c(-c4ccccc4)cccc32)ccc1CNCCO	212
N#Cc1cccc(COc2cc(C(=O)N3CCc4c(-c5ccccc5)cccc43)ccc2CN2CCCC[C@H]2C(=O)O)c1	1330
O=C(c1ccc(CNCCO)cc1Cl)N1CCc2c(-c3ccccc3)cccc21	> 10000
CC(=O)NCCNCc1ccc(C(=O)N2CCc3c(-c4ccccc4)cccc32)cc1O	602
N#Cc1cccc(COc2cc(C(=O)N3CCc4c(-c5ccccc5)cccc43)ccc2CNCCO)c1	572
COc1cc(C(=O)N2CCc3c(-c4ccc5c(c4)OCCO5)cccc32)ccc1CNCCNC(C)=O	416
CC(=O)NCCNCc1ccc2c(c1)CN(c1cccc(-c3ccccc3)c1C)C2=O	> 10000
O=C(c1ccc(CNCCO)cc1)N1CCc2c(-c3ccccc3)cccc21	192
O=C(c1ccc(CNCCO)c(O)c1)N1CCc2c(-c3ccccc3)cccc21	304
COc1cc(C(=O)N2CCc3c(-c4ccccc4)cccc32)ccc1CN1CCC[C@H]1C(=O)O	1890
CC(=O)NCCNCc1ccc2c(c1)C(=O)N(c1cccc(-c3ccccc3)c1C)C2	> 10000
O=C(c1ccc(CNCCO)c(Cl)c1)N1CCc2c(-c3ccccc3)cccc21	353
COc1cc(C(=O)N2CCc3c(-c4ccccc4)cccc32)ccc1CN[C@H](CO)C(=O)O	278
N#Cc1cccc(COc2cc(C(=O)N3CCc4c(-c5ccccc5)cccc43)ccc2CN[C@H](CO)C(=O)O)c1	3280
CC(=O)NCCNCc1ccc(C(=O)N2CCc3c(-c4ccccc4)cccc32)cc1C	457
COc1cc(C(=O)N2CCc3c(-c4ccccc4)cccc32)ccc1CNCCNC(C)=O	220
CC(=O)NCCNCc1ccc(C(=O)N2CCc3c(-c4ccccc4)cccc32)cc1OCc1cccc(C#N)c1	1060
COc1cc(C(=O)N2CCc3c(-c4ccccc4)cccc32)cc(OC)c1CNCCO	4770
CC(=O)NCCNCc1cccc(C(=O)N2CCc3c(-c4ccccc4)cccc32)c1	745
COCCNCc1ccc(C(=O)N2CCc3c(-c4ccccc4)cccc32)cc1OC	350

Molecular target: T1, Programmed cell death protein 1/Programmed cell death 1 ligand 1
Assay: Inhibition of PD1/PDL1 protein-protein interaction in human PBMC-derived CD3-positive T cells co-cultured with human Hep3B cells expressing human PDL1/OS-8 assessed as increase in IFNgamma secretion at 20 uM measured after 72 hrs
Set-up: scale not given: the % may be the effect or the level left
Settings: not given

Compound	Activity [%]
COc1cc(C(=O)N2CCc3c(-c4ccccc4)cccc32)ccc1CNCCO	610

Test system: Jurkat
Assay: Cytotoxicity against human Jurkat T cells assessed as reduction in cell viability measured after 72 hrs by CCK-8 assay
Format: cell-based
Settings: Homo sapiens, Jurkat

Compound	EC50 [nM]
COc1cc(C(=O)N2CCc3c(-c4ccccc4)cccc32)ccc1CNCCO	44700
COc1cc(C(=O)N2CCc3c(-c4ccccc4)cccc32)ccc1CNCCNC(C)=O	39800

Same assay, conditions: human, jurkat, time 72 hrs

Compound	Activity
COc1cc(C(=O)N2CCc3c(-c4ccc5c(c4)OCCO5)cccc32)ccc1CNCCO	Toxic
Cc1cc(C(=O)N2CCc3c(-c4ccccc4)cccc32)ccc1CNCCO	Toxic
O=C(c1ccc(CNCCO)cc1)N1CCc2c(-c3ccccc3)cccc21	Toxic

Molecular target: T1, Programmed cell death protein 1/Programmed cell death 1 ligand 1
Assay: Inhibition of PD1/PDL1 protein-protein interaction in human PBMC-derived CD3-positive T cells co-cultured with human Hep3B cells expressing human PDL1/OS-8 assessed as increase in IFNgamma secretion at 5 uM measured after 72 hrs relative to BMS-1
Settings: not given

Compound	fold change (FC)
COc1cc(C(=O)N2CCc3c(-c4ccccc4)cccc32)ccc1CNCCO	3.21

Molecular target: T1, Programmed cell death protein 1/Programmed cell death 1 ligand 1
Assay: Inhibition of PD1/PDL1 protein-protein interaction in human PBMC-derived CD3-positive T cells co-cultured with human Hep3B cells expressing human PDL1/OS-8 assessed as increase in IFNgamma secretion measured after 72 hrs
Settings: dose 0.31-20 µM

Compound	inhibition
COc1cc(C(=O)N2CCc3c(-c4ccccc4)cccc32)ccc1CNCCO	Dose-dependent effect
COc1cc(C(=O)N2CCc3c(-c4ccccc4)cccc32)ccc1CNCCNC(C)=O	Dose-dependent effect
